Results from US7071231B2, “Naphthalene ureas as glucose uptake enhancers” (Telik, Inc., priority 1999, dated 2006).

Columns and labels:
CYP2C19 = CYP2C19 (Homo sapiens, UniProt P33261); assay: P450 interactions: CYP2C19 inhibition; format: in vitro ADME; details: human cytochromes P450
Source text: (§1) A major pathway for elimination of drugs from the body, which may limit their effectiveness, is the cytochrome P450 system of the liver.

male CD rats = assay: Acute toxicity in CD rats; format: in vivo; details: p.o., 300 mg/kg in PBS
Protocol: (§2) Compound 15 was administered in PBS vehicle to male db/db mice (i.p.) and male CD rats (p.o.) at 300 mg/kg, which is approximately 10 times its effective dose.

STZ/HFD rat = assay: Blood glucose determination in the STZ/HFD rat model of Type 2 diabetes; format: in vivo; details: STZ/HFD rat
Source text: Blood Glucose Determination in the STZ/HFD Rat Model of Type 2 Diabetes
Representative compounds were also profiled in genetically normal rats given a high-fat diet followed by treatment with a low dose of streptozotocin (STZ/HFD). This treatment regimen recreates both the insulin resistance and the hyperglycemia seen in human Type 2 diabetes. Male CD rats (Jackson Labs, Bar Harbor Me.) were maintained according to NIH guidelines, housed two per cage, and fed either standard lab chow (Tekland Laboratory Diets, James Grain, San Jose, Calif.) or the same chow supplemented with chocolate bars, cookies, and potato chips such that their final diet contained 30% fat by weight (high-fat diet; HFD). After two weeks of this diet, the animals were given an injection of freshly-prepared streptozotocin (35 mg/kg, i.p.) and continued on the HFD. Animals that achieved glucose levels of 190 to 380 mg/dl were used in this study. At the end of the 12-hour light/dark cycle, and just prior to the experiment, the animals were moved to new cages with no food available until 4 hours after treatment. The compound or vehicle (PBS) was given p.o. by gavage, and blood was sampled by approved IACUC protocol using tail cap method. Glucose was determined using the Glucometer Elite (Bayer, Elkhart, Ind.).
The reduction was maximal (20%) 4 hours after the administration of Compound 15.

human insulin receptor = target: T1, human insulin receptor (Homo sapiens, UniProt P06213); assay: Whole-cell phosphorylation assay (3T3HIR cells); format: cell-based; details: 15 min, anti-phosphotyrosine Western, various concentrations (FIG. 2)
T1 construct: expressed in transfected cells; host or cells: NIH 3T3 (3T3HIR)
Protocol: Whole-cell Phosphorylation Assay:
The initial step in insulin signaling is phosphorylation of the insulin receptor in response to insulin binding. NIH 3T3 cells overexpressing human insulin receptor (3T3HIR) were grown for 2 days at a density of 2×10^5/ml cells in 6 well culture dishes in DMEM with 10% FBS and L-glutamine. Prior to the experiment the cells were serum-starved overnight with DMEM with 0.1% BSA. The following morning, the cells were washed with PBS and the medium was replaced with 150 mM NaCl, 1.7 mM KCl, 0.9 mM CaCl2, K2HPO4 (pH 7.4), to which were added either the experimental compounds, or their vehicle (DMSO). Insulin or its vehicle (0.01% BSA) was diluted in the assay buffer (containing test compound or vehicle, respectively) to a final concentration of 2.5 nM. After incubating for 15 min, the cells were washed with cold PBS twice and lysed in 50 mM Tris.HCl, pH 7.4 150 mM NaCl, 0.25% sodium deoxycholate, 1% NP-40, 1 mM EGTA, 1 mM PMSF, 1 mM Na3VO4, 1 mM NaF, 1 ug/ml each of Aprotinin, Leupeptin and Pepstatin. The cell lysates were clarified by centrifugation at 12000 rpm, and the supernatants were estimated for protein concentration. Total cell lysate ([…]) was boiled with 2× SDS-PAGE sample buffer for 3 min and loaded into 7.5% SDS-PAGE along with Amersham rainbow marker protein as a molecular weight standard. […]

insulin receptor = target: T2, insulin receptor (Rattus norvegicus, UniProt P15127); assay: Rat muscle insulin receptor phosphorylation after oral dose; format: in vivo; details: STZ/HFD rats, oral dose 30 mg/kg, muscle samples 0.5-6 hr (FIG. 12)
T2 construct: from tissue; host or cells: rat muscle (in vivo oral dosing)
Protocol: Rat Muscle Phosphorylation
Muscle is a particularly important tissue for taking up glucose from the blood in response to insulin receptor stimulation. Activation of muscle insulin receptors is, therefore, an important factor in the control of blood glucose levels. STZ/HFD rats prepared as in Example 18 were given an oral dose of Compound 15 (30 mg/kg), and muscle samples were harvested at different time points (0.5 hr, 1 hr, 2 hr, 3 hr, 4 hr, 6 hr) and homogenized in extraction buffer (50 mM Tris.HCl pH 7.4, 150 mM NaCl, 0.25% sodium deoxycholate, 1% NP40, 1 mM EGTA, 1 mM PMSF, 1 mM Na3VO4, 1 mM NaF, 1 ug/ml each of Aprotinin, Leupeptin and Pepstatin). The tissue homogenate was centrifuged at 12K for 30 min at 4° C., and the supernatants were saved. An equal protein amount from each sample was immunoprecipitated with anti-insulin receptor antibody for 2 hr at 4° C., followed by another 1 hr incubation with Protein G-Agarose beads. The immunecomplexes were washed three times with the extraction buffer, and the samples were boiled in 2× SDS-PAGE loading buffer for 5 min at 100° C. The samples were resolved in a 7.5% SDS-PAGE along with Amersham rainbow marker protein as a molecular weight standard. […]

male db/db mice = assay: Acute toxicity in db/db mice; format: in vivo; details: i.p., 300 mg/kg in PBS
Protocol: as §2

CYP1A2 = CYP1A2 (Homo sapiens, UniProt P05177); assay: P450 interactions: CYP1A2 inhibition; format: in vitro ADME; details: human cytochromes P450
Source text: as §1

[1] = test system: platelet-derived growth factor (PDGF) receptor; assay: Selectivity: PDGF receptor phosphorylation; format: cell-based; details: in the absence or presence of PDGF

CYP2C19, sequence (P33261 whole entry): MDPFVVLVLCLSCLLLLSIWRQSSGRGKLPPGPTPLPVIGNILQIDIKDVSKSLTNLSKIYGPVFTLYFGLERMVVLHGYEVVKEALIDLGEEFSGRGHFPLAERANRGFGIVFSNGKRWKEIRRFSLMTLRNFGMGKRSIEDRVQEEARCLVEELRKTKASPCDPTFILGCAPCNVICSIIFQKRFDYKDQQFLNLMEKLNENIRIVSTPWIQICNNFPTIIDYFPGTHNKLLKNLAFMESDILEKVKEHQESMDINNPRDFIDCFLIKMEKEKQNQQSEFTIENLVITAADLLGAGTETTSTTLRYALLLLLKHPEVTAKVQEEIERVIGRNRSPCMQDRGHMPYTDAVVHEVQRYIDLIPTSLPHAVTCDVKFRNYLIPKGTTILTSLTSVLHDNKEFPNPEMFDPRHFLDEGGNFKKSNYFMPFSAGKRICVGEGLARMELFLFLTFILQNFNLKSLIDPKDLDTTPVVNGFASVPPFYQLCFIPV
T1 sequence (P06213 763-1382 limits assumed): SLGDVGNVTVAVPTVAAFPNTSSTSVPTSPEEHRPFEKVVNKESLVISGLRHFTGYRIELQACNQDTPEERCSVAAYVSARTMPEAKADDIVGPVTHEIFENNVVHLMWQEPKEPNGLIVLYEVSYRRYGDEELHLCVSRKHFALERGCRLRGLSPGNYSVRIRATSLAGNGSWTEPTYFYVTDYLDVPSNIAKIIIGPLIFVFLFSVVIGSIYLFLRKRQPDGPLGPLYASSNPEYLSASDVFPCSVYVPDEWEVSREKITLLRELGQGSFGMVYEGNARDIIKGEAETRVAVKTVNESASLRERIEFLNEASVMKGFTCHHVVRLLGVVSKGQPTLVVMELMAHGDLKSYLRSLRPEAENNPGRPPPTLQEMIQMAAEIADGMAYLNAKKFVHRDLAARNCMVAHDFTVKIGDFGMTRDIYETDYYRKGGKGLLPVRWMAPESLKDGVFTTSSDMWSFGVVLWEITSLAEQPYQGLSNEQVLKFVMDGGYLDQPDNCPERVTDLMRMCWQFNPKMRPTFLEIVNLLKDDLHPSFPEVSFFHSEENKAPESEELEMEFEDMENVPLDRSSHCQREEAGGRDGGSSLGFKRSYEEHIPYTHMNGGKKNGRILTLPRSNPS
T1 sequence (P06213 28-758 partner limits assumed): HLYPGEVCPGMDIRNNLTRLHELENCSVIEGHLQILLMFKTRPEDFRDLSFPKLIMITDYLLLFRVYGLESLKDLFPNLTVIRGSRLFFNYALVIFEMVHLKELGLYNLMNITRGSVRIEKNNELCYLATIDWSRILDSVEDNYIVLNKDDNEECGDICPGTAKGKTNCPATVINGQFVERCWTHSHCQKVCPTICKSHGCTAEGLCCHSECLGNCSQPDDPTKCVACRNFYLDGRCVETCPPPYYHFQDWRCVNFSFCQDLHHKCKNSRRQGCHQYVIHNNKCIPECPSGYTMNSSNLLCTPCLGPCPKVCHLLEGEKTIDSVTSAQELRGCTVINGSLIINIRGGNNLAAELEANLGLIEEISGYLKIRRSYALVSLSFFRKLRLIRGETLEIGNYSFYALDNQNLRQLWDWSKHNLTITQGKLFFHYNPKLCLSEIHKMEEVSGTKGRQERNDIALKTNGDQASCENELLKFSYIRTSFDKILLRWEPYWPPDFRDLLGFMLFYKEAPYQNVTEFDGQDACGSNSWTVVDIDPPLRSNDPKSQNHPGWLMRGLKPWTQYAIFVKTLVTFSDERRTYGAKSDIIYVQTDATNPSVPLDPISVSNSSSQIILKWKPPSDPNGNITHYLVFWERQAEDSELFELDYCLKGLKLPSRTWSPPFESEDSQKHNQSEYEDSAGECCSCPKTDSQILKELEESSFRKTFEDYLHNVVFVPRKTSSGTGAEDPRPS
T2 sequence (P15127 764-1383 limits assumed): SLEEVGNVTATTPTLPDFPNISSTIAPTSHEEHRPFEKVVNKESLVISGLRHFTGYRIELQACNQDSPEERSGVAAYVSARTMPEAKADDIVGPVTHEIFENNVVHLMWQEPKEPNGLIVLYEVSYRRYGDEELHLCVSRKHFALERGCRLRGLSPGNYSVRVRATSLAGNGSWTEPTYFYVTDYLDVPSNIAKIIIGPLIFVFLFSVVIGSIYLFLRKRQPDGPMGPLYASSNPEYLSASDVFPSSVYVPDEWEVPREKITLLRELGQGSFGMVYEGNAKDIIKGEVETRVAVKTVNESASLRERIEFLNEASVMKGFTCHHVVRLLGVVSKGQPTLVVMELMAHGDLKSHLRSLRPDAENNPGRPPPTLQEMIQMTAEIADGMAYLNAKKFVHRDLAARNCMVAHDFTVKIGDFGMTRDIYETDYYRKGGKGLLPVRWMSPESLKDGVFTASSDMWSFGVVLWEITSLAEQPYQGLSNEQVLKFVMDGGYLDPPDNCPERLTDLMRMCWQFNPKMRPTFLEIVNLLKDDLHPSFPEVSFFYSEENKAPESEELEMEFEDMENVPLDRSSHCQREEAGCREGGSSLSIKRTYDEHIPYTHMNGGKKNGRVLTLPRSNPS
T2 sequence (P15127 27-759 partner limits assumed): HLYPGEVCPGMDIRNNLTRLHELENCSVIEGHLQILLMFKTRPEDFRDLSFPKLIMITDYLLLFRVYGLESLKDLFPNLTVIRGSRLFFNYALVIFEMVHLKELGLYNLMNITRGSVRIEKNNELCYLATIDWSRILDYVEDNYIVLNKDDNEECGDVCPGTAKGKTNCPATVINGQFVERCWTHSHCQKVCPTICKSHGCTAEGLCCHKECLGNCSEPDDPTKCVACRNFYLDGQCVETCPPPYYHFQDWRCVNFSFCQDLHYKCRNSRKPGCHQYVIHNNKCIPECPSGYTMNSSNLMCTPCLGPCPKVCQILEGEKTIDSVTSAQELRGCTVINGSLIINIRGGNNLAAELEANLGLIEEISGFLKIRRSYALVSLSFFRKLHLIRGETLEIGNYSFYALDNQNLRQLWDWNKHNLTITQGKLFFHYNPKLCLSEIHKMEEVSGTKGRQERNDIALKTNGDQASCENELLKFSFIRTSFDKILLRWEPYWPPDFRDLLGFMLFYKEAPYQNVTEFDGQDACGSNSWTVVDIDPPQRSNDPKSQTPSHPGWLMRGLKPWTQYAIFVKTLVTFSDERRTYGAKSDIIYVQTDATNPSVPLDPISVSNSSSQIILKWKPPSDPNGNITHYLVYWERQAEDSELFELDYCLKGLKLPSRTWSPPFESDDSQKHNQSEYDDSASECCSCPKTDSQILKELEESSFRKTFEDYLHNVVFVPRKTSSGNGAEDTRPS
CYP1A2, sequence (P05177 whole entry): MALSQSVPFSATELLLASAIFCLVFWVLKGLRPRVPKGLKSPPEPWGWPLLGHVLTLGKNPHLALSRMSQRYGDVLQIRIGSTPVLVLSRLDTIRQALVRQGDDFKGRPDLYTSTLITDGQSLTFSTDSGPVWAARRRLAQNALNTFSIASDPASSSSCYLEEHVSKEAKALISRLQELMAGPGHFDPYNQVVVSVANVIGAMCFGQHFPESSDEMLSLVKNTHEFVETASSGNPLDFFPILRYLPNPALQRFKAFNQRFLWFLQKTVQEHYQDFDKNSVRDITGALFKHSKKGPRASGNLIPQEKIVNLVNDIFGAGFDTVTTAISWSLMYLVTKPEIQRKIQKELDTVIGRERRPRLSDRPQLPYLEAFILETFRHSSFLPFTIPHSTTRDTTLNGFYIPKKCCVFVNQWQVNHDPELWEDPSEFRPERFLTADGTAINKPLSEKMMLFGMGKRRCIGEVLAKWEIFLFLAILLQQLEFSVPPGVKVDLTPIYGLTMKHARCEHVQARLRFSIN

## O=C(Nc1ccc2c(O)cc(S(=O)(=O)Nc3cccc(S(=O)(=O)O)c3)cc2c1)Nc1ccc2c(O)cc(S(=O)(=O)Nc3cccc(S(=O)(=O)O)c3)cc2c1 [Compound 15, 3-{[(4-hydroxy-7-{[N-(5-hydroxy-7-{[(3-sulfophenyl)amino]sulfonyl}(2-naphthyl))carbamoyl]amino}-2-naphthyl)sulfonyl]amino}benzenesulfonic acid]
CYP2C19
  inhibition of catalytic activity of CYP2C19: did not inhibit
Male CD rats
  acute toxicity: No acute toxicity was seen
STZ/HFD rat; p.o. by gavage (FIG. 11)
  maximal reduction in blood glucose levels: 20%
  time of maximal reduction in blood glucose after administration: 4 h
STZ/HFD rat; p.o. by gavage, 6 hour experiment (FIG. 11)
  onset and duration of reduction in blood glucose levels: beginning one hour after administration and persisting for the entire 6 hours of the experiment
Human insulin receptor
  autophosphorylation of the insulin receptor in whole cells: increase of autophosphorylation
Insulin receptor
  phosphorylation of the insulin receptor in muscle: produced an increase in phosphorylation of the insulin receptor
Male db/db mice
  acute toxicity: No acute toxicity was seen
CYP1A2
  inhibition of catalytic activity of CYP1A2: did not inhibit
[1]
  phosphorylation of the PDGF receptor: not to increase the phosphorylation
